Data on 3 compounds can be found in ChEMBL document CHEMBL1148945, “Isolation of cytochrome P450 inhibitors from strawberry fruit, Fragaria ananassa” (J Nat Prod, 2004).

The experiment deals with Cytochrome P450 3A4 (Homo sapiens, UniProt P08684). Nature of the experiment: Inhibition of human CYP3A4. It counts as ADME.

The structures appear in SMILES notation.

Cytochrome P450 3A4, sequence (P08684 whole entry): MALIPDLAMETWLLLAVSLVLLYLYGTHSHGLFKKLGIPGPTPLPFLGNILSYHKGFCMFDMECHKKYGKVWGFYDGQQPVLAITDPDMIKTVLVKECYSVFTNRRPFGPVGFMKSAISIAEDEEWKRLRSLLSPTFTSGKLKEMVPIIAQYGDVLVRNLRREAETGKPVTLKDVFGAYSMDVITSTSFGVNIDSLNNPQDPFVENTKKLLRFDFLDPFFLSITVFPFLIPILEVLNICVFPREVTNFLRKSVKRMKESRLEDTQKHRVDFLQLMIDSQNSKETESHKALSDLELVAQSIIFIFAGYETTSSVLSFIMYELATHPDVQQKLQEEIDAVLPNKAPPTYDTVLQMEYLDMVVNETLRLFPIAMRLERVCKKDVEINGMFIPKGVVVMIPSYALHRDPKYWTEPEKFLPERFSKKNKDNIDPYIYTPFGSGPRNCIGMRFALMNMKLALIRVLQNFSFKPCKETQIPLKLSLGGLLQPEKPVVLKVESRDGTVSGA

A word on the IC50: it is the concentration that gives 50% inhibition. A low value points to higher potency. Take `O=C(/C=C\c1ccc(O)cc1)OC[C@H]1O[C@@H](Oc2c(-c3ccc(O)cc3)oc3cc(O)cc(O)c3c2=O)[C@H](O)[C@@H](O)[C@@H]1O`: the IC50 was 700 nM.

With `CC(C)CC(=O)c1c(O)cc(O)cc1O[C@@H]1O[C@H](CO)[C@@H](O)[C@H](O)[C@H]1O`, the IC50 was determined as 120000 nM.

For `O=C(/C=C/c1ccc(O)cc1)OC[C@H]1O[C@@H](Oc2c(-c3ccc(O)cc3)oc3cc(O)cc(O)c3c2=O)[C@H](O)[C@@H](O)[C@@H]1O` [TILIROSIDE], the midpoint of inhibition, the IC50, lay at 700 nM.
